# Assay: LNP Characteristics (size, PDI, encapsulation efficiency) of LNPs formulated with novel ionizable lipids
# Assay type: physicochemical
# Conditions: LNP formulated with the ionizable lipid, DOPE, Cholesterol, DMG-PEG2000
# Method: LNPs formulated using the novel ionizable lipids of the disclosure or control ionizable lipids MC3 and SM-102 were synthesized by mixing the lipid components of the LNP in ethanol at a predetermined molar ratio (ionizable lipid/DOPE/Cholesterol/DMG-PEG2000=30/15/50/1.5) to prepare an organic phase. Sa-mRNA encoding firefly luciferase (LUC) or green fluorescent protein (GFP) was diluted in 50 mM citrate buffer (pH 4.5, Fisher) to prepare an aqueous phase. The sa-mRNA was stored at −80° C. and was thawed on ice prior to use. The ethanol and aqueous phases were mixed at a 1:3 ratio by pipette with the N/P=4.2/1. The resultant LNPs were purified by ultrafiltration (100,000 cut-off, MilliporeSigma™ Amicon™ Ultra-15 Centrifugal Filter Units) at 4° C. prior to transfection into a cell, such as a T-cell.
# LNPs formulated using novel ionizable lipids of the disclosure were synthesized using the procedure described in Example 2 and characterized. Table 4 below show the properties of each LNP formulated using a novel ionizable lipid of the disclosure.
Avg. Encapsulation Efficiency (EE) % [%],Avg. PDI,Avg. Size [nm],SMILES
95.1,0.1,200,"CCCCCCCCCN(CCCCCCCCC)CCC(=O)N1CN(C(=O)CCN(CCCCCCCCC)CCCCCCCCC)CN(C(=O)CCN(CCCCCCCCC)CCCCCCCCC)C1 [Lipid E2, 1,1′,1″-(1,3,5-triazinane-1,3,5-triyl)tris(3-(dinonylamino)propan-1-one)]"
90.4,0.12,190.7,"CCCCCCCCCCCCCCCC(=O)N(C(CCCCCCCC)CCCCCCCC)C(C(=O)NC1=CCCCC1)C1CCN(CC)CC1 (stereo not drawn) [Lipid P6A2, N-(2-(cyclohex-1-en-1-ylamino)-1-(1-ethylpiperidin-4-yl)-2-oxoethyl)-N-(heptadecan-9-yl)palmitamide]"
95.5,0.10,188.0,CCCCCCCCCCCCCC(=O)N(CC(CCCCCCCC)CCCCCCCCCC)C(C(=O)NC1CCCCC1)C1CCN(CC)CC1 (stereo not drawn) [Lipid P28D10]
97.8,0.11,176.6,"CCCCCCCCCCCCCCCC(=O)N(C(CCCCCCC)CCCCCCC)C(C(=O)NC1CCCCC1)C1CCN(CC)CC1 (stereo not drawn) [Lipid P30A1, N-(2-(cyclohexylamino)-1-(1-ethylpiperidin-4-yl)-2-oxoethyl)-N-(pentadecan-8-yl)palmitamide]"
91.0,0.10,151.6,"CCCCCCCCCCCCCCCCC(=O)N(C(CCCCCCC)CCCCCCC)C(CC1CCN(C)CC1)C(=O)NC1CCCCC1 (stereo not drawn) [Lipid P30B7, N-(1-(cyclohexylamino)-3-(1-methylpiperidin-4-yl)-1-oxopropan-2-yl)-N-(pentadecan-8-yl)heptadecanamide]"
93.9,0.11,166.8,"CCCCCCCCCCCCCCCCCC(=O)N(C(CCCCCCC)CCCCCCC)C(CC1CCN(C)CC1)C(=O)NC1CCCCC1 (stereo not drawn) [Lipid P30C7, N-(1-(cyclohexylamino)-3-(1-methylpiperidin-4-yl)-1-oxopropan-2-yl)-N-(pentadecan-8-yl)stearamide]"
97.4,0.12,179.1,"CCCCCCCCCCCCCC(=O)N(C(CCCCCCC)CCCCCCC)C(C(=O)NC1CCCCCC1)C1CCN(CC)CC1 (stereo not drawn) [Lipid P38D1, N-(2-(cycloheptylamino)-1-(1-ethylpiperidin-4-yl)-2-oxoethyl)-N-(pentadecan-8-yl)tetradecanamide]"
94.8,0.21,236.3,"CCCCCCCCCCCCCC(=O)N(C(CCCCCCC)CCCCCCC)C(CC1CCN(C)CC1)C(=O)NC1CCCCCC1 (stereo not drawn) [Lipid P38D7, N-(1-(cycloheptylamino)-3-(1-methylpiperidin-4-yl)-1-oxopropan-2-yl)-N-(pentadecan-8-yl)tetradecanamide]"
95.4,0.18,186.9,"CCCCCCCCCCCCCC(=O)N(C(CCCCCCCC)CCCCCCCC)C(CC1CCN(C)CC1)C(=O)NC1CCCCCC1 (stereo not drawn) [Lipid P38D8, N-(1-(cycloheptylamino)-3-(1-methylpiperidin-4-yl)-1-oxopropan-2-yl)-N-(heptadecan-9-yl)tetradecanamide]"
95.8,0.14,189.9,"CCCCCCCCCCC(=O)N(CC(CCCCCCCC)CCCCCCCCCC)C(CC1CCN(C)CC1)C(=O)NC1CCCCCC1 (stereo not drawn) [Lipid P40B10, N-(1-(cycloheptylamino)-3-(1-methylpiperidin-4-yl)-1-oxopropan-2-yl)-N-(2-octyldodecyl)undecanamide]"
99.1,0.25,192.9,"CCCCCCCCCCCC(=O)N(CC(CCCCCCCC)CCCCCCCCCC)C(CC1CCN(C)CC1)C(=O)NC1CCCCCC1 (stereo not drawn) [Lipid P40C10, N-(1-(cycloheptylamino)-3-(1-methylpiperidin-4-yl)-1-oxopropan-2-yl)-N-(2-octyldodecyl)dodecanamide]"
96.6,0.14,189.3,"CCCCCCCCCCCC(=O)N(C(CCCCCCCCCCC)CCCCCCCCCCC)C(CC1CCN(C)CC1)C(=O)NC1CCCCCC1 (stereo not drawn) [Lipid P40C11, N-(1-(cycloheptylamino)-3-(1-methylpiperidin-4-yl)-1-oxopropan-2-yl)-N-(tricosan-12-yl)dodecanamide]"
98.2,0.18,149.2,"CCCCCCCCCCCCCCC(=O)N(C(CCCCCCC)CCCCCCC)C(CC1CCN(C)CC1)C(=O)NC1CCCCCC1 (stereo not drawn) [Lipid P40D7, N-(1-(cycloheptylamino)-3-(1-methylpiperidin-4-yl)-1-oxopropan-2-yl)-N-(pentadecan-8-yl)pentadecanamide]"
98.1,0.26,186.5,"CCCCCCCCCCCCC(=O)N(CC(CCCCCCCCCC)CCCCCCCCCCCC)C(CC1CCN(C)CC1)C(=O)NC(C)(C)C (stereo not drawn) [Lipid P51C12, N-(1-(tert-butylamino)-3-(1-methylpiperidin-4-yl)-1-oxopropan-2-yl)-N-(2-decyltetradecyl)tridecanamide]"
97.9,0.10,173.8,"CCCCCCCCCCCC(CCCCCCCCCCC)N(C(=O)CCCCCCCCC)C(C(=O)NC(C)(C)C)C1CCN(CC)CC1 (stereo not drawn) [Lipid P53A5, N-(2-(tert-butylamino)-1-(1-ethylpiperidin-4-yl)-2-oxoethyl)-N-(tricosan-12-yl)decanamide]"
98.3,0.16,175.6,"CCCCCCCCCCCCC(CCCCCCCCCC)CN(C(=O)CCCCCCCCC)C(C(=O)NC(C)(C)C)C1CCN(CC)CC1 (stereo not drawn) [Lipid P53A6, N-(2-(tert-butylamino)-1-(1-ethylpiperidin-4-yl)-2-oxoethyl)-N-(2-decyltetradecyl)decanamide]"
93.4,0.10,181.2,"CCCCCCCCCCCCC(CCCCCCCCCC)CN(C(=O)CCCCCCCCCC)C(C(=O)NC12CC3CC(CC(C3)C1)C2)C1CCN(CC)CC1 (stereo not drawn) [Lipid P54B6, N-(2-(((1s,3s)-adamantan-1-yl)amino)-1-(1-ethylpiperidin-4-yl)-2-oxoethyl)-N-(2-decyltetradecyl)undecanamide]"
89.1,0.12,186.3,"CCCCCCCCCCCCCCCC(=O)N(C(CCCCCCC)CCCCCCC)C(C(=O)NC12CC3CC(CC(C3)C1)C2)C1CCN(CC)CC1 (stereo not drawn) [Lipid P56A1, N-(2-(((1s,3s)-adamantan-1-yl)amino)-1-(1-ethylpiperidin-4-yl)-2-oxoethyl)-N-(pentadecan-8-yl)palmitamide]"
81.5,0.15,154.4,"CCCCCCCCCCCCCCCC(=O)N(C(CCCCCCCC)CCCCCCCC)C(C(=O)NC12CC3CC(CC(C3)C1)C2)C1CCN(CC)CC1 (stereo not drawn) [Lipid P56A2, N-(2-(((1s,3s)-adamantan-1-yl)amino)-1-(1-ethylpiperidin-4-yl)-2-oxoethyl)-N-(heptadecan-9-yl)palmitamide]"
90.6,0.10,173.2,"CCCCCCCCCCCCCCCCC(=O)N(C(CCCCCCC)CCCCCCC)C(C(=O)NC12CC3CC(CC(C3)C1)C2)C1CCN(CC)CC1 (stereo not drawn) [Lipid P56B1, N-(2-(((1s,3s)-adamantan-1-yl)amino)-1-(1-ethylpiperidin-4-yl)-2-oxoethyl)-N-(pentadecan-8-yl)heptadecanamide]"
92.9,0.10,219,"CCCCCCCC/C=C\CCCCCCCC(=O)N(C(CCCCCCC)CCCCCCC)C(C(=O)NC1CCCCCC1)C1CCN(CC)CC1 (stereo not drawn) [Lipid P149A1, N-(2-(cycloheptylamino)-1-(1-ethylpiperidin-4-yl)-2-oxoethyl)-N-(pentadecan-8-yl)oleamide]"
92.0,0.10,218,"CCCCCCCC/C=C\CCCCCCCC(=O)N(C(CCCCCCCC)CCCCCCCC)C(C(=O)NC1CCCCCC1)C1CCN(CC)CC1 (stereo not drawn) [Lipid P149A2, N-(2-(cycloheptylamino)-1-(1-ethylpiperidin-4-yl)-2-oxoethyl)-N-(heptadecan-9-yl)oleamide]"
90.1,0.15,176,"CCCCCC/C=C\CCCCCCCC(=O)N(C(CCCCCCCC)CCCCCCCC)C(C(=O)NC1CCCCCC1)C1CCN(CC)CC1 (stereo not drawn) [Lipid P149C2, (Z)-N-(2-(cycloheptylamino)-1-(1-ethylpiperidin-4-yl)-2-oxoethyl)-N-(heptadecan-9-yl)hexadec-9-enamide]"
90.1,0.12,148,"CCCCCCCCCCCCOC(=O)CCC(=O)N(C(CCCCCCC)CCCCCCC)C(C(=O)NC1CCCCCC1)C1CCN(CC)CC1 (stereo not drawn) [Lipid P153C1, dodecyl 4-((2-(cycloheptylamino)-1-(1-ethylpiperidin-4-yl)-2-oxoethyl)(pentadecan-8-yl)amino)-4-oxobutanoate]"
